# Measured values from PubChem BioAssay (NCI).
#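 Each compound was tested at five concentrations against cells in 96-well plates for 48 hours. GI50: concentration for 50% inhibition of growth. At the TGI there is no net growth.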
# Columns and labels:
# Test in all cases: DTP human tumour cell line panel, 48 h
# NCI-H460 lung = system: NCI-H460 lung
# OVCAR-4 ovarian = system: OVCAR-4 ovarian
# HT29 colon = system: HT29 colon
# TK-10 renal = system: TK-10 renal
# SR leukemia = system: SR leukemia
# RXF 393 renal = system: RXF 393 renal
# A549 NSCLC = system: A549 NSCLC
# PC-3 prostate = system: PC-3 prostate
# OVCAR-5 ovarian = system: OVCAR-5 ovarian
# K-562 leukemia = system: K-562 leukemia
# NCI-H23 lung = system: NCI-H23 lung
# UACC-62 melanoma = system: UACC-62 melanoma
# HCT-15 colon = system: HCT-15 colon
# MDA-MB-231 breast = system: MDA-MB-231 breast
# NCI-H522 lung = system: NCI-H522 lung
# SW-620 colon = system: SW-620 colon
# KM12 colon = system: KM12 colon
# IGROV1 ovarian = system: IGROV1 ovarian
# SF-295 CNS = system: SF-295 CNS
# NCI-H226 lung = system: NCI-H226 lung
# RPMI-8226 leukemia = system: RPMI-8226 leukemia
# UO-31 renal = system: UO-31 renal
# LOX IMVI melanoma = system: LOX IMVI melanoma
# T-47D breast = system: T-47D breast
# MCF7 breast = system: MCF7 breast
# OVCAR-8 ovarian = system: OVCAR-8 ovarian
# HOP-92 NSCLC = system: HOP-92 NSCLC
# MALME-3M melanoma = system: MALME-3M melanoma
# SK-MEL-2 melanoma = system: SK-MEL-2 melanoma
compound,measurement,setting,value
Cc1cc(S(=O)(=O)/N=C(/N)Nc2ccccc2O)c(SCc2ccccc2)cc1Cl,TGI,NCI-H460 lung,50.7 µM
same,GI50,OVCAR-4 ovarian,11.4 µM
same,TGI,OVCAR-4 ovarian,34.9 µM
same,GI50,HT29 colon,32.5 µM
same,TGI,HT29 colon,> 100 µM
same,GI50,TK-10 renal,22.9 µM
same,TGI,TK-10 renal,41.2 µM
same,GI50,SR leukemia,5.79 µM
same,TGI,SR leukemia,> 100 µM
same,GI50,RXF 393 renal,12.1 µM
same,TGI,RXF 393 renal,27.9 µM
same,GI50,A549 NSCLC,10.2 µM
same,TGI,A549 NSCLC,32.1 µM
same,GI50,PC-3 prostate,13.9 µM
same,TGI,PC-3 prostate,32.4 µM
same,GI50,OVCAR-5 ovarian,19.8 µM
same,TGI,OVCAR-5 ovarian,35.9 µM
same,GI50,K-562 leukemia,10.2 µM
same,TGI,K-562 leukemia,> 100 µM
same,GI50,NCI-H23 lung,17.1 µM
same,TGI,NCI-H23 lung,34.4 µM
same,GI50,UACC-62 melanoma,9.6 µM
same,TGI,UACC-62 melanoma,22.7 µM
same,GI50,HCT-15 colon,12.1 µM
same,TGI,HCT-15 colon,28 µM
same,GI50,MDA-MB-231 breast,14.8 µM
same,TGI,MDA-MB-231 breast,32.2 µM
same,GI50,NCI-H522 lung,9.68 µM
same,TGI,NCI-H522 lung,27.1 µM
same,GI50,SW-620 colon,22.1 µM
same,TGI,SW-620 colon,56.4 µM
same,GI50,KM12 colon,12.6 µM
same,TGI,KM12 colon,32.5 µM
same,GI50,IGROV1 ovarian,11 µM
same,TGI,IGROV1 ovarian,26.9 µM
same,GI50,SF-295 CNS,19 µM
same,TGI,SF-295 CNS,39.5 µM
same,GI50,NCI-H226 lung,33.1 µM
same,TGI,NCI-H226 lung,> 100 µM
same,GI50,RPMI-8226 leukemia,11.4 µM
same,TGI,RPMI-8226 leukemia,52.3 µM
same,GI50,UO-31 renal,6.99 µM
same,TGI,UO-31 renal,25.7 µM
same,GI50,LOX IMVI melanoma,14.6 µM
same,TGI,LOX IMVI melanoma,33.5 µM
same,GI50,T-47D breast,12.2 µM
same,TGI,T-47D breast,31.4 µM
same,GI50,MCF7 breast,15.9 µM
same,TGI,MCF7 breast,55.7 µM
same,GI50,OVCAR-8 ovarian,12.9 µM
same,TGI,OVCAR-8 ovarian,36 µM
same,GI50,HOP-92 NSCLC,15.3 µM
same,TGI,HOP-92 NSCLC,35.6 µM
same,GI50,MALME-3M melanoma,20.3 µM
same,TGI,MALME-3M melanoma,38.2 µM
same,GI50,SK-MEL-2 melanoma,10.6 µM
same,TGI,SK-MEL-2 melanoma,26.2 µM
